# Like-named read-outs stand apart in the source and are kept apart here.
# Assays:
# [1] = tested on: P. falciparum strain 3D7; design: method as in PMID 27616047, PMID 29880399, PMID 25089811; settings: reference compounds; read-out: IC50 a (In vitro IC50 values against P. falciparum); cited from earlier work
# [2] = molecular target: T1, PfCK (Plasmodium falciparum, UniProt Q8IM71); settings: reference compounds, cited from earlier work; for inhibition of PfCK depending on substrate (in words): choline kinase or ethanolamine kinase activity; for IC50: read-out: IC50 PfCK b (compound concentration required to inhibit PfCK enzyme by 50%)
# T1 construct: A truncated form of PfCK (Δ79-440) featuring an N-terminal 6× His-tag; 6xHis (N); host or cells: Escherichia coli BL21 (DE3) Star
# T1 sequence (Q8IM71 entry or part of it): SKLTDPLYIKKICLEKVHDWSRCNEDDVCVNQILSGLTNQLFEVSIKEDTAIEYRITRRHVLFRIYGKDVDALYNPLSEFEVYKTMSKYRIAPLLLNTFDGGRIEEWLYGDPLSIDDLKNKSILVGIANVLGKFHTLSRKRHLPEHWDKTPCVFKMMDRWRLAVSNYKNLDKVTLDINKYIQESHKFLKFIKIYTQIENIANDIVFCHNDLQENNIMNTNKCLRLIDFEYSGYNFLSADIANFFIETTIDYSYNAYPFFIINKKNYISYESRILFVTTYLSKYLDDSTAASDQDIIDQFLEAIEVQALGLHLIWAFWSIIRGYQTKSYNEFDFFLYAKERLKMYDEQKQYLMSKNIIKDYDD
# [3] = tested on: P. falciparum strain 3D7; assay: Antimalarial activity, P. falciparum lactate dehydrogenase growth inhibition assay; type: cell-based, Plasmodium falciparum; settings: for IC50: Plasmodium falciparum; for fold difference in antimalarial activity, bipyridinyl vs biphenylic counterparts: Fg-13 and Fg-17 vs Fg-14 and Fa-21
# Procedure: Parasites of the P. falciparum strain 3D7 were grown in fresh group 0 positive human erythrocytes, obtained from the Centro Regional de Transfusion Sanguínea-SAS (Granada, Spain) and suspended at 5% haematocrit in RPMI 1640 containing 2% human serum, 0.2% NaHCO3, 0.5% Albumax II, 150 μM hypoxanthine, and […] gentamicin. Flasks were incubated at 37 °C, under 5% CO2 and 95% air mixture. […] The stock culture was then diluted with complete medium and non-parasitized erythrocytes to yield a haematocrit of 2% and parasitemia of 0.25%. Stock solutions of the test drugs were prepared at an initial concentration of 200 mM in DMSO, serially diluted and dispensed into triplicate in 96-well plates to yield final concentrations ranging from 0.0039 to 2 μM. The final well volume was 200 μL with a final concentration of DMSO 0.001%. Each plate also included positive growth controls, where only medium were added, and negative growth controls with 100 nM of chloroquine. […] A multidrop dispenser was used to add 50 μL of synchronized parasite culture per well. After 72 h of growth in presence of test compounds, the plates were stored frozen at −20 °C for at least 24 h. Next, they were thawed at room temperature. Parasite growth inhibition assays and IC50 determinations were carried out following the P. falciparum lactate dehydrogenase assay where parasite viability is quantified by measuring LDH activity upon APAD+ addition, a cofactor that is specific to the Plasmodium enzyme. To evaluate LDH activity, 140 μL of freshly made reaction mix, containing 143 mM sodium L-lactate, 143 μM APAD, 178.75 μM NBT, 1 U/mL diaphorase, 0.7% Tween 20 and 100 mM Tris-HCl (pH 8.0) were dispensed into plates. After 10 min of incubation in the dark at room temperature, absorbance was measured at 630 nm with a vmax precision multiwell plate reader from Molecular Devices, by using the accompanying SOFT maxPro software for analysis.
# [4] = molecular target: T1, PfCK; assay: Spectrophotometric coupled enzymatic assay for PfCK activity (substrate choline); type: biochemical; settings: for remaining activity at 25 µM: read-out: PfCK Fractional Activity at 25 µM
# Procedure: A truncated form of PfCK (Δ79-440) featuring an N-terminal 6× His-tag was purchased from Genescript (Piscataway, NJ, USA), cloned into a pET-28a vector and transformed into Escherichia coli BL21 (DE3) Star cells (Invitrogen, Carlsbad, CA, USA). The transformed bacteria were cultured in Luria-Bertani (LB) medium at 37 °C until OD600 = 0.6 and the expression was induced with 1 mM isopropyl β-D-1-thiogalactopyranoside (IPTG). The cell culture was grown overnight at 20 °C and 180 rpm. Cells were pelleted by centrifugation at 10,000 rpm, resuspended in 50 mM Tris/HCl pH 7.5, 500 mM NaCl, 0.2 mM phenylmethylsulphonyl fluoride (PMSF, Sigma Aldrich, St. Luis, MO, USA), DNase (Sigma Aldrich, St. Luis, MO, USA), 0.5 mM β-mercaptoethanol (Sigma Aldrich, St. Luis, MO, USA) and sonicated. Separation of the soluble from the insoluble fraction was obtained by centrifugation at 15,000 rpm and 4 °C. The target enzyme was purified by a two-step purification protocol. In the first step, the cell lysate was incubated for 45 min with Ni-NTA resin (Qiagen, Venlo, The Netherlands) in a gravity column. Then, the column was washed with 40 column volumes (CV) of 50 mM Tris/HCl pH 7.5, 300 mM NaCl, 10 mM imidazole and 1 CV of 50 mM Tris/HCl pH 7.5, 300 mM NaCl, 40 mM imidazole. Finally, the His-tagged enzyme was eluted from the column using a 50 mM Tris/HCl pH 7.5, 300 mM NaCl, 400 mM imidazole buffer. A subsequent size-exclusion chromatography step was implemented to further polish the sample using a HiPrep 26/60 Sephacryl 100 HR column (GE Healthcare, Little Chalfont, Buckinghamshire, UK) previously equilibrated with 20 mM Tris/HCl pH 7.5, 150 mM NaCl buffer. This second purification step afforded a pure protein sample. The protein production yield was estimated to be nearly 2.5 mg of recombinant enzyme per liter of bacterial culture.
# A spectrophotometric 96-well plate assay for PfCK activity was established based on an assay previously described. The reaction mix was composed as follows: 100 mM Tris/HCl pH 7.5, 100 mM KCl, 10 mM MgCl2, 0.5 mM phosphoenolpyruvate, 0.25 mM NADH, 4 U of pyruvate kinase, 5 U lactate dehydrogenase, 2 mM ATP, 4 mM choline chloride and different concentrations of the selected compounds. All the necessary compounds for the assay were purchased from Sigma Aldrich (St. Luis, MO, USA) and the final assay volume was 200 μL. The enzymatic reaction was initiated by the addition of the enzyme at less than 10 nM concentration and the reaction rates were measured by monitoring the decrease in the absorbance at 340 nm for 20 min at room temperature using a Spark10M instrument (Tecan). Finally, the IC50 values for each compound were determined by plotting the enzyme fractional activity (f.a.) against the logarithm of compound concentration (log[I]). Curve-fitting was performed with a dose-response curve from Origin (OriginLab Corporation, Northampton, MA, USA), using the following equation: f.a.=1/1+10^logIC50−logI
# All data points were collected in triplicate and the final dose-response curves were plotted with MATLAB (R2018a (9.4.0.813654), 2018, MathWorks, Natick, MA, USA). See curves in Figure S1 in Supplementary Materials.
# [5] = Aggregation of compound solutions for the enzymatic assays; type: physicochemical; settings: even at 5 mM concentration
# Excerpt: As a result, it was difficult to measure their exact concentration, which is crucial for enzymatic assays.
# [6] = Erythrocyte, P. falciparum 3D7 in human erythrocytes, 72 h, LDH readout, read-out: IC50 a (In vitro IC50 values against P. falciparum)
SMILES,IC50 [1] [nM],"IC50 [3, 6] [nM]",remaining activity at 25 µM [4] [%],melting point [°C],further results
CN(C)c1cc[n+](Cc2ccc(OCCOc3ccc(C[n+]4ccc(N(C)C)cc4)cc3)cc2)cc1 [10a],16 ± 1,,,,inhibition of PfCK depending on substrate (in words) [2]: no inhibition of the enzyme in its choline kinase or ethanolamine kinase activity is observed
Clc1ccc2c(N3CCCCCC3)cc[n+](Cc3ccc(OCCOc4ccc(C[n+]5ccc(N6CCCCCC6)c6ccc(Cl)cc65)cc4)cc3)c2c1 [10k],35 ± 4,,,,IC50 [2]: 10900 ± 124 nM
CN(C)c1cc[n+](Cc2ccc(-c3ccc(C[n+]4ccc(N5CCCC5)cc4)cc3)cc2)cc1 [BR-23],3 ± 0.2,,,,inhibition of PfCK depending on substrate (in words) [2]: only had inhibitory activity when the enzyme-substrate was ethanolamine; IC50 [2]: 276000 nM
CN(C)c1cc[n+](Cc2ccc(CCCCc3ccc(C[n+]4ccc(N5CCCC5)cc4)cc3)cc2)cc1 [BR-25],2 ± 0.3,,,,inhibition of PfCK depending on substrate (in words) [2]: only had inhibitory activity when the enzyme-substrate was ethanolamine; IC50 [2]: 103000 nM
CN(C)c1cc[n+](Cc2ccc(-c3ccc(C[n+]4ccc(N(C)c5ccc(Cl)cc5)cc4)cc3)cc2)cc1 [BR-31],7 ± 0.6,,,,
CN(C)c1cc[n+](Cc2ccc(CCCCc3ccc(C[n+]4ccc(N(C)c5ccc(Cl)cc5)cc4)cc3)cc2)cc1 [BR-33],45 ± 3,,,,
"[Br-].c1ccc(-c2ccc(C[n+]3cnc(N4CCCC4)c4sccc43)cc2)cc1 [Fa-M1, 1-([1,1’-biphenyl]-4-ylmethyl)-4-(pyrrolidin-1-yl)thieno[3,2-d]pyrimidin-1-ium bromide]",,41,54.6 ± 11.7,295 to 298,aggregation [5]: severe aggregation
"[Br-].c1ccc(-c2ccc(C[n+]3ccc(N4CCCC4)c4sccc43)cc2)cc1 [Fa-M2, 4-([1,1’-biphenyl]-4-ylmethyl)-7-(pyrrolidin-1-yl)thieno[3,2-b]pyridin-4-ium bromide]",,48.9,101 ± 13.7,271 to 273,aggregation [5]: severe aggregation
"[Br-].[Br-].c1cc2c(N3CCCC3)nc[n+](Cc3ccc(-c4ccc(C[n+]5cnc(N6CCCC6)c6ccsc65)cn4)nc3)c2s1 [Fg-13, 1,1’-([2,2’-bipyridine]-5,5’-diylbis(methylene))bis(4-(pyrrolidin-1-yl)thieno[2,3-d]pyrimidin-1-ium) bromide]",,143,99.1 ± 12,238 to 240,"fold difference in antimalarial activity, bipyridinyl vs biphenylic counterparts [3]: > 10 fold"
"[Br-].[Br-].c1cc2c(N3CCCC3)nc[n+](Cc3ccc(CCc4ccc(C[n+]5cnc(N6CCCC6)c6ccsc65)cc4)cc3)c2s1 [Fg-15, 1,1’-((ethane-1,2-diylbis(4,1-phenylene))bis(methylene))bis(4-(pyrrolidin-1-yl)thieno[2,3-d]pyrimidin-1-ium) bromide]",,12.7,97.5 ± 9.22,293 to 295,"IC50 ([3]; 3D7, Erythrocyte, infected erythrocytes, P. falciparum, read-out: antimalarial activity (IC50), as given in the text): ~11 nM"
"[Br-].[Br-].c1cc2c(s1)c(N1CCCC1)nc[n+]2Cc1ccc(CCc2ccc(C[n+]3cnc(N4CCCC4)c4sccc43)cc2)cc1 [Fg-16, 1,1’-((ethane-1,2-diylbis(4,1-phenylene))bis(methylene))bis(4-(pyrrolidin-1-yl)thieno[3,2-d]pyrimidin-1-ium) bromide]",,20.6,79.7 ± 10.3,231 to 233,"IC50 ([4]; IC50 PfCK b (compound concentration required to inhibit PfCK enzyme by 50%), substrate choline 4 mM, ATP 2 mM): 26500 ± 2440 nM"
"[Br-].[Br-].c1cc2c(s1)c(N1CCCC1)nc[n+]2Cc1ccc(-c2ccc(C[n+]3cnc(N4CCCC4)c4sccc43)cn2)nc1 [Fg-17, 1,1’-([2,2’-bipyridine]-5,5’-diylbis(methylene))bis(4-(pyrrolidin-1-yl)thieno[3,2-d]pyrimidin-1-ium) bromide]",,227,50.3 ± 7.88,330 to 332,"fold difference in antimalarial activity, bipyridinyl vs biphenylic counterparts [3]: > 10 fold"
"[Br-].[Br-].c1cc2c(N3CCCCCC3)nc[n+](Cc3ccc(-c4ccc(C[n+]5cnc(N6CCCCCC6)c6ccsc65)cn4)nc3)c2s1 [Fg-20, 1,1’-([2,2’-bipyridine]-5,5’-diylbis(methylene))bis(4-(azepan-1-yl)thieno[2,3-d]pyrimidin-1-ium) bromide]",,97.6,96.6 ± 13.1,289 to 291,
"[Br-].[Br-].c1cc2c(N3CCCCC3)nc[n+](Cc3ccc(CCc4ccc(C[n+]5cnc(N6CCCCC6)c6ccsc65)cc4)cc3)c2s1 [Fg-31, 1,1’-((ethane-1,2-diylbis(4,1-phenylene))bis(methylene))bis(4-(piperidin-1-yl)thieno[2,3-d]pyrimidin-1-ium) bromide]",,34.7,87.4 ± 2.2,295 to 297,
"[Br-].[Br-].c1cc2c(N3CCCCC3)nc[n+](Cc3ccc(-c4ccc(C[n+]5cnc(N6CCCCC6)c6ccsc65)cn4)nc3)c2s1 [Fg-32, 1,1’-([2,2’-bipyridine]-5,5’-diylbis(methylene))bis(4-(piperidin-1-yl)thieno[2,3-d]pyrimidin-1-ium) bromide]",,> 250,83.8 ± 9.53,267 to 269,
C[N+]1(C)CCOC(O)(c2ccc(-c3ccc(C4(O)C[N+](C)(C)CCO4)cc3)cc2)C1 (stereo not drawn) [HC-3],> 50000,,,,
CN(C)c1cc[n+](Cc2ccc(CCCCc3ccc(C[n+]4ccc(N(C)C)cc4)cc3)cc2)cc1 [MN58b],3.5,,,,
C/[N+](c1ccc(Cl)cc1)=c1\ccn(Cc2ccc(-c3ccc(Cn4cc/c(=[N+](/C)c5ccc(Cl)cc5)c5ccccc54)cc3)cc2)c2ccccc12 [RSM-932A],26.5,,,,

# From paper PMC8621770, “New Compounds with Bioisosteric Replacement of Classic Choline Kinase Inhibitors Show Potent Antiplasmodial Activity” (Pharmaceutics, 2021)
